Measurements from PMC4669708 (Cell Death & Disease, 2015).

Tests used:
Test in all cases: c-ponatinib pulldown LC-MS/MS
Format in all cases: binding
CCT2 = molecular target: T1, CCT2 (Homo sapiens, UniProt P78371)
T1 sequence (P78371 1-535): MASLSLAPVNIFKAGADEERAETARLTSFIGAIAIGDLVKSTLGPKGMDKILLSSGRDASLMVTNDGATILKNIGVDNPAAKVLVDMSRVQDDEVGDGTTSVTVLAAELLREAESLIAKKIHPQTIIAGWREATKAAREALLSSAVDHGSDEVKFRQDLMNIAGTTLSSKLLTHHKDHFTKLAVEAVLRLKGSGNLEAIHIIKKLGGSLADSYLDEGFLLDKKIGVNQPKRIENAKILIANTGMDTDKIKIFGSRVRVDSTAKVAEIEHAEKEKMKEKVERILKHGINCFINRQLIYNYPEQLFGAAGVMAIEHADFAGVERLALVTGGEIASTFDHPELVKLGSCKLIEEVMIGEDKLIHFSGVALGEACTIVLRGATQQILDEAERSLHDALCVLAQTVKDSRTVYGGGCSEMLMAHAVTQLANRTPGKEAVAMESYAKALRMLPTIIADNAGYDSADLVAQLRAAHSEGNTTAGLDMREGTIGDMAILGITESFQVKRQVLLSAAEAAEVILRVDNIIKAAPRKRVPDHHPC
Summary of the method: (§1)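 Whole cell lysate (10 mg) was first passed over immobilized c-ponatinib, and bound proteins were eluted. After reduction, alkylation and tryptic digestion, the peptides were analysed by LC-MS/MS. Finally, binding specificity was assigned by a combined P-value, with or without free-compound competition.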

CDK19 = CDK19 (Homo sapiens, UniProt Q9BWU1)
Sequence of CDK19 (Q9BWU1 whole entry): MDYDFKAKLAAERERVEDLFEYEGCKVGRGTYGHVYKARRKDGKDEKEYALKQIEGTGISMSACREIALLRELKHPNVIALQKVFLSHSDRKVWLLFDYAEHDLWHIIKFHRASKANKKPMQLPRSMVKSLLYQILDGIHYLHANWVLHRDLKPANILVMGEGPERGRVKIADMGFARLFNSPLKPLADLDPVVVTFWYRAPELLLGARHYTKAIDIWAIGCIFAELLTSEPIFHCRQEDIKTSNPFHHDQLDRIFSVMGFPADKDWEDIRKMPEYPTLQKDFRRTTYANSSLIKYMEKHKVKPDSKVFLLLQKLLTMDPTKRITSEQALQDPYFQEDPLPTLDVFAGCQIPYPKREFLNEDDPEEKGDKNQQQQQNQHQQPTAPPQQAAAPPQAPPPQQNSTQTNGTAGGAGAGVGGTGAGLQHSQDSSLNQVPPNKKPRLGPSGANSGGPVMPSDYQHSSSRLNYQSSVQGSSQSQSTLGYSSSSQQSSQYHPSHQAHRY
Sequence of CDK19 (P24863 whole entry partner): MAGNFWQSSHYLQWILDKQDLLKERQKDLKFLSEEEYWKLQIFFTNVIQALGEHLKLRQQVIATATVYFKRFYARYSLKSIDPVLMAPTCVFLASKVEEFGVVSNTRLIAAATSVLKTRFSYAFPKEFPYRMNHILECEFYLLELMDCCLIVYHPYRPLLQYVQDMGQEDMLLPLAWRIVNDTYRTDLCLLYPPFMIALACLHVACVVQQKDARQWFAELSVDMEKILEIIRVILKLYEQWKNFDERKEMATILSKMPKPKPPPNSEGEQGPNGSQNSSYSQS
Summary of the method: as §1

MAP3K1 = MAP3K1 (Homo sapiens, UniProt Q13233)
Sequence of MAP3K1 (Q13233 whole entry): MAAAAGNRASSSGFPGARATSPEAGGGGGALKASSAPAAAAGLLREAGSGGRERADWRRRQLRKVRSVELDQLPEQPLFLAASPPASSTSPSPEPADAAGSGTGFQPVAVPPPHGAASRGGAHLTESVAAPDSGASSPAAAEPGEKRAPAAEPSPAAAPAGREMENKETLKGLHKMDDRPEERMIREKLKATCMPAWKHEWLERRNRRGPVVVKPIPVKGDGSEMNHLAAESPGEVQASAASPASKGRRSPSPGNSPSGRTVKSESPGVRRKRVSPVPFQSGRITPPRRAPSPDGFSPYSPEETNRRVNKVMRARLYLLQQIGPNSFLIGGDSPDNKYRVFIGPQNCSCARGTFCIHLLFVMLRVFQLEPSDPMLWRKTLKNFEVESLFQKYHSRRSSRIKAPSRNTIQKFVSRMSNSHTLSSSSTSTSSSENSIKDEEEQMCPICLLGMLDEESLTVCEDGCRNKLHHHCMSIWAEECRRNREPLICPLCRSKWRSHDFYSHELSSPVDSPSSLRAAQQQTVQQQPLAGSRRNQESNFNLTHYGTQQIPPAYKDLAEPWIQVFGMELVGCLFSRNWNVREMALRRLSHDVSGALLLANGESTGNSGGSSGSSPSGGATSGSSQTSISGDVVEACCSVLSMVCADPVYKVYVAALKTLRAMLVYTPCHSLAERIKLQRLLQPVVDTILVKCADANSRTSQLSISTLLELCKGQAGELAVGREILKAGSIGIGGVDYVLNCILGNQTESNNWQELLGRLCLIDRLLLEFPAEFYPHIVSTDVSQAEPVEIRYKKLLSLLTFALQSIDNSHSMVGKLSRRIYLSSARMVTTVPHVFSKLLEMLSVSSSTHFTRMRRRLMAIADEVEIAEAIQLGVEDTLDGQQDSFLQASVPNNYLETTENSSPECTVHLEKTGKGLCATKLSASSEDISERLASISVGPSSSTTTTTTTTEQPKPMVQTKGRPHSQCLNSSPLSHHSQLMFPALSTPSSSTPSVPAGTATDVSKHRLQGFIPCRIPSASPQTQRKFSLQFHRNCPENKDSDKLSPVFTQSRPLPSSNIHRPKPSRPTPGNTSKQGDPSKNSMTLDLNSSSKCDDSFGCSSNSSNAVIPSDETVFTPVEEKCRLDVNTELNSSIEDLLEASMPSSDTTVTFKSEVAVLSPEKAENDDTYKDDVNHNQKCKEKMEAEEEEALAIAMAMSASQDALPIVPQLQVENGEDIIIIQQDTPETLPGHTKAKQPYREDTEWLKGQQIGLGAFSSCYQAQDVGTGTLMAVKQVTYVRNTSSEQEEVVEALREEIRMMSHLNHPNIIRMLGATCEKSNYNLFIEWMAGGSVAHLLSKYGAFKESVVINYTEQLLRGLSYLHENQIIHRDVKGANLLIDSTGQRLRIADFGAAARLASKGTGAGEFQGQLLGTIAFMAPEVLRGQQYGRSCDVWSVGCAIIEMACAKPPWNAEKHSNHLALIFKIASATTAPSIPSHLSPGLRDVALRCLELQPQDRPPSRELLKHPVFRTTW
Summary of the method: as §1

MAP4K4 = MAP4K4 (Homo sapiens, UniProt O95819)
Sequence of MAP4K4 (O95819 whole entry): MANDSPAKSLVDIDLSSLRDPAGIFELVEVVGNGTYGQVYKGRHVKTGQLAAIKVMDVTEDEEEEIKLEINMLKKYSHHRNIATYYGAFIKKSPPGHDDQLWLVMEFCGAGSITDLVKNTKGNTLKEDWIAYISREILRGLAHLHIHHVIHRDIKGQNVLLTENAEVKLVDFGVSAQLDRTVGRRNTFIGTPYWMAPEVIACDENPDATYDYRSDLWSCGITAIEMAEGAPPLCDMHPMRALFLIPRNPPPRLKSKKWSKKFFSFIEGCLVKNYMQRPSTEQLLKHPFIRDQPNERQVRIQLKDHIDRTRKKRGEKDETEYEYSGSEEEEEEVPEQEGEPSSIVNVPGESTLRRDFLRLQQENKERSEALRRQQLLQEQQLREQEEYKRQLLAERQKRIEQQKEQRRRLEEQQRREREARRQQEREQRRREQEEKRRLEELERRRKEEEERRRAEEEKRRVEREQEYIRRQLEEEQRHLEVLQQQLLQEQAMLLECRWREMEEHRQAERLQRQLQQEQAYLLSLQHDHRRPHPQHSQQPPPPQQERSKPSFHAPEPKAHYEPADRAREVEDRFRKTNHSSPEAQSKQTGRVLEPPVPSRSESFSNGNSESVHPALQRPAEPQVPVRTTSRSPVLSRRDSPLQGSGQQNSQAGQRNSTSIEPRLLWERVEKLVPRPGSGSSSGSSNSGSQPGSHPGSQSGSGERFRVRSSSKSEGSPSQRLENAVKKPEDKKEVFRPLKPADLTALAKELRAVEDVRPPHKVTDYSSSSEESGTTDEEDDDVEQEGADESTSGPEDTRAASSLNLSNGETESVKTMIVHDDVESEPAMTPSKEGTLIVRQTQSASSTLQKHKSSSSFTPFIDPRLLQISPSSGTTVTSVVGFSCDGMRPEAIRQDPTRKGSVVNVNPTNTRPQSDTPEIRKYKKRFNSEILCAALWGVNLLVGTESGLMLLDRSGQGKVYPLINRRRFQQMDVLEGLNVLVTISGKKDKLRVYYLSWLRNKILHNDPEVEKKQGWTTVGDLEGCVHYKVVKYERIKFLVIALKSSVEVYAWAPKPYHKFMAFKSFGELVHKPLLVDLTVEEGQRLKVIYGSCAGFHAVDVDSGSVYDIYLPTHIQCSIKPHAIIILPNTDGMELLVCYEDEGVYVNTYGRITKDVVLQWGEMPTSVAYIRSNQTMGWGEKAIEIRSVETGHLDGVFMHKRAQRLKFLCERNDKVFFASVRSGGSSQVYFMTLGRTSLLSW
Summary of the method: as §1

NAP1L1 = molecular target: T2, NAP1L1 (Homo sapiens, UniProt P55209)
T2 sequence (P55209 1-391): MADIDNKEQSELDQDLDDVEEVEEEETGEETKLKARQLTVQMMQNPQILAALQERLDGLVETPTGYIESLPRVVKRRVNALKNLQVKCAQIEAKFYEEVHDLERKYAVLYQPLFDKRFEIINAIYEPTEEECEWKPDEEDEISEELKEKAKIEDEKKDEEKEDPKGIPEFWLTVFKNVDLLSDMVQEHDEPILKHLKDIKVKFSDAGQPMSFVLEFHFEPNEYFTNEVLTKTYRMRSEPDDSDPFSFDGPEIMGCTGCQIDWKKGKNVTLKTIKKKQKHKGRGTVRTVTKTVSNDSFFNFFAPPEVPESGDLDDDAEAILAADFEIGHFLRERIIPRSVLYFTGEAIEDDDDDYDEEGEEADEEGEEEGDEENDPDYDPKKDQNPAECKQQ
Summary of the method: as §1

RAF1 = RAF1 (Homo sapiens, UniProt P04049)
Sequence of RAF1 (P04049 whole entry): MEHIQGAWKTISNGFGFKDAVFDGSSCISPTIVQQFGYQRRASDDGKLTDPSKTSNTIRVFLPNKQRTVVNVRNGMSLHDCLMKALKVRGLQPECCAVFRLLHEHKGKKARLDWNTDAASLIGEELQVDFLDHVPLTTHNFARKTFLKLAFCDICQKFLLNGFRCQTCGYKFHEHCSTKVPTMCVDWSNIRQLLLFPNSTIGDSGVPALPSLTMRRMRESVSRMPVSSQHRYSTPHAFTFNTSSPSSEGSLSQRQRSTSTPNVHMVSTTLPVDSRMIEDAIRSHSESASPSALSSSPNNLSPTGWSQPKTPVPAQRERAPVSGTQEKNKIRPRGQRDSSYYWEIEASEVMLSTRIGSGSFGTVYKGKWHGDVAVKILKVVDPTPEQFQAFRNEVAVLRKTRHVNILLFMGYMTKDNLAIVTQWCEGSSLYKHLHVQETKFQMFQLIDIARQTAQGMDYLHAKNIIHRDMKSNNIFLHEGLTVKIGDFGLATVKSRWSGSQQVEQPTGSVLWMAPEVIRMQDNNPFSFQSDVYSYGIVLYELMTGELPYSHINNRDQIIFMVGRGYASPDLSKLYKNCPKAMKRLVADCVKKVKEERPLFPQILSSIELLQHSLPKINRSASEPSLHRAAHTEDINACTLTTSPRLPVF
Summary of the method: as §1

TCP1 = TCP1 (Homo sapiens, UniProt P17987)
Sequence of TCP1 (P17987 whole entry): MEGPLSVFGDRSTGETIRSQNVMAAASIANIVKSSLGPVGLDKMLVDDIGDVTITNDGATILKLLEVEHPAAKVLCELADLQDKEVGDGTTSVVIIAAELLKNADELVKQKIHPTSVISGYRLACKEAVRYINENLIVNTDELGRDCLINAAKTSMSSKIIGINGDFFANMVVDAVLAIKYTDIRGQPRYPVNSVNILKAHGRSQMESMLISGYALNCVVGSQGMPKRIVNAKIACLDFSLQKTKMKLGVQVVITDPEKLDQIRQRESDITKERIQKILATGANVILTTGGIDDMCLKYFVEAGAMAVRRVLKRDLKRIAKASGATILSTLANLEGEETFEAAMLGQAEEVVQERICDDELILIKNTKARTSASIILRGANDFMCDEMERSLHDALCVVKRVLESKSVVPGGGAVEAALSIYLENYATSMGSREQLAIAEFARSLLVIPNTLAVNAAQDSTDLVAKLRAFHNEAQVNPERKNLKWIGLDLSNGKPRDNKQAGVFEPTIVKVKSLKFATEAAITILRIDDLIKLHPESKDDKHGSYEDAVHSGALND
Summary of the method: as §1

UNC119B = UNC119B (Homo sapiens, UniProt A6NIH7)
Sequence of UNC119B (A6NIH7 whole entry): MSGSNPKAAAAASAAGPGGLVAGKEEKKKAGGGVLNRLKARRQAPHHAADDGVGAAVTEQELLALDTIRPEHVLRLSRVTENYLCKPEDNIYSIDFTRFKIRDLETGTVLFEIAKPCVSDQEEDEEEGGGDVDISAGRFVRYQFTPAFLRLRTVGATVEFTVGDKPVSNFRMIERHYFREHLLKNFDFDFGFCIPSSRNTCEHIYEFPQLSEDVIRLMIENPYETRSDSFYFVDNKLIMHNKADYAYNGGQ
Summary of the method: as §1

SMILES: Cc1ccc(C(=O)Nc2ccc(CN3CCN(CCCN)CC3)c(C(F)(F)F)c2)cc1C#Cc1cnc2cccnn12 [c-ponatinib]
- Av. SC comp. (CCT2; + free ponatinib): 0
- Total SC comp. (CCT2; + free ponatinib): 0
- Av. SC (CCT2; no competitor): 3.5
- Total SC (CCT2; no competitor): 14
- Av. SC comp. (CDK19; + free ponatinib): 0
- Total SC comp. (CDK19; + free ponatinib): 0
- Av. SC (CDK19; no competitor): 7.5
- Total SC (CDK19; no competitor): 30
- Av. SC comp. (MAP3K1; + free ponatinib): 0
- Total SC comp. (MAP3K1; + free ponatinib): 0
- Av. SC (MAP3K1; no competitor): 9
- Total SC (MAP3K1; no competitor): 36
- Av. SC comp. (MAP4K4; + free ponatinib): 10.75
- Total SC comp. (MAP4K4; + free ponatinib): 43
- Av. SC (MAP4K4; no competitor): 54.5
- Total SC (MAP4K4; no competitor): 218
- Av. SC comp. (NAP1L1; + free ponatinib): 1.25
- Total SC comp. (NAP1L1; + free ponatinib): 5
- Av. SC (NAP1L1; no competitor): 2
- Total SC (NAP1L1; no competitor): 8
- Av. SC comp. (RAF1; + free ponatinib): 0
- Total SC comp. (RAF1; + free ponatinib): 0
- Av. SC (RAF1; no competitor): 1.25
- Total SC (RAF1; no competitor): 5
- Av. SC comp. (TCP1; + free ponatinib): 1.5
- Total SC comp. (TCP1; + free ponatinib): 6
- Av. SC (TCP1; no competitor): 5
- Total SC (TCP1; no competitor): 20
- Av. SC comp. (UNC119B; + free ponatinib): 0
- Total SC comp. (UNC119B; + free ponatinib): 0
- Av. SC (UNC119B; no competitor): 6
- Total SC (UNC119B; no competitor): 24
